Drawing on ChEMBL document CHEMBL1146143, “New ligand-based approach for the discovery of antitrypanosomal compounds” (2006), this text covers Activity for twelve compounds.

Assay [1] has as its system Trypanosoma cruzi. Put plainly: Antitrypanosomal activity against Trypanosoma cruzi epimastigotes at 100 ug/ml. The class given is functional.
For assay [2], the system named is Trypanosoma cruzi. Briefly: Antitrypanosomal activity against Trypanosoma cruzi epimastigotes at 10 ug/ml. The class given is functional.
Assay [3] deals with Trypanosoma cruzi. Briefly: Antitrypanosomal activity against Trypanosoma cruzi epimastigotes at 1 ug/ml. The class given is functional.
Assay [4] deals with J774. Put plainly: Unspecific cytotoxicity against murine J774 macrophages at 100 ug/ml. The class given is functional, Mus musculus.
In assay [5] the test system is J774. Briefly: Unspecific cytotoxicity against murine J774 macrophages at 10 ug/ml. The class given is functional, Mus musculus.
Assay [6] has as its system J774. Put plainly: Unspecific cytotoxicity against murine J774 macrophages at 1 ug/ml. The class given is functional, Mus musculus.
Assay [7] has as its system Trypanosoma cruzi. Put plainly: Antitrypanosomal activity against Trypanosoma cruzi amastigotes at 100 ug/ml. The class given is functional.
The test system of assay [8] is Trypanosoma cruzi. Put plainly: Antitrypanosomal activity against Trypanosoma cruzi amastigotes at 10 ug/ml. The class given is functional.
In assay [9] the test system is Trypanosoma cruzi. Put plainly: Antitrypanosomal activity against Trypanosoma cruzi amastigotes at 1 ug/ml. The class given is functional.
The subject of assay [10] is Mus musculus. Put plainly: Antitrypanosomal activity against Trypanosoma cruzi infected NMRI mice at 50 mg/kg/day. The class given is functional.

As to `O=C(CN1CCCCC1)Nc1cc([N+](=O)[O-])ccc1Cl`, the values for the Activity in assay [1], in [2] and in assay [3] were 11%, 1.3% and 21.9%, respectively.
For the compound `CC1CS(=O)(=O)CCN1/N=C/c1ccc([N+](=O)[O-])o1` (stereo not given) [NIFURTIMOX], the Activity is 98.7% in assay [1]; 90% in assay [2]; 75.5% in assay [3]; 25.9% in assay [4]; 0.6% in assay [5]; 0% in assay [6]. For the same compound, the Activity in assay [7] is reported as 100%; in assay [8], 94.4%; in assay [9] it was 88.1%; in [10] it was 100%.
For the compound `O=C1Nc2cc([N+](=O)[O-])ccc2N2CCCC12` (stereo not given), the Activity in assay [1] was determined as 90.5%; in assay [2], 70.3%; in assay [3], 25.6%; in [4], 23.6%; in assay [5], 0%; in assay [6], 0%. For the same compound, the Activity in assay [7] is 30.2%; in assay [8], 13.3%.
As to `O=C1Nc2cc([N+](=O)[O-])ccc2N2CCCCC12` (stereo not given), the Activity stood at 77% in assay [1]; 30.9% in assay [2]; 3.9% in [3]; 34.2% in [4]; 5.6% in assay [5]; 2.4% in assay [6].
On to `O=C(Cn1ccnc1[N+](=O)[O-])NCc1ccccc1` [BENZNIDAZOLE], for which the Activity in assay [4] is listed as 1.4%; in assay [5] it was 1.6%; in [6] it was 1.9%; in [7], 96.6%; in assay [8], 9.2%; in assay [9], 83.2%.
Regarding `O=C1Nc2cc([N+](=O)[O-])ccc2N2Cc3ccccc3CC12` (stereo not given), the Activity in assay [1] is 72.1%; in assay [2], 29.4%; in assay [3], 19.4%; in assay [4] it was 50.4%; in [5], 0%; in assay [6], 0%.
As for `CN1CC(=O)N(C)c2cc([N+](=O)[O-])ccc21`, the Activity in [1] worked out at 72.7%; in assay [2], 21.6%; in [3], 22.5%; in [4], 0%; in assay [5], 0%; in [6], 0%. In addition, the Activity in [7] came out at 85.4%; in [10], 60.7%.
On to `O=C(CCl)Nc1cc([N+](=O)[O-])ccc1N1CCCCC1`, for which the Activity is on record as 84% in [1]; 34.8% in [2]; 7.1% in assay [3]; 24.9% in assay [4]; 6.3% in [5]; 8.1% in assay [6].
With `CN1C(=O)CN(CCCCCCl)c2ccc([N+](=O)[O-])cc21`, the Activity in assay [1] was 83.3%; in assay [2] it was 82.2%; in assay [3], 15%; in [4] it was 99.5%; in assay [5] it was 17.8%; in assay [6], 0%.
For the compound `CN1C(=O)C[N+](C)(C)c2ccc([N+](=O)[O-])cc21.[Cl-]`, the Activity in assay [1] is listed as 67.2%; in [2], 9%; in assay [3] it was 0.9%; in assay [4], 64.8%; in assay [5], 10.5%; in assay [6] it was 9.8%.
On to `O=C1CN(CCCCCCCl)c2ccc([N+](=O)[O-])cc2N1`, for which the Activity is 90.9% in [1]; 72.1% in [2]; 23.2% in [3]; 97.4% in assay [4]; 32.9% in assay [5]; 16.6% in [6]. Besides, the Activity in assay [8] worked out at 100%.
Take `O=C(CN1CCCCC1)Nc1cc([N+](=O)[O-])ccc1F`: the Activity in assay [1] is listed as 14.3%; in [2], 4.4%; in assay [3] it was 0%.
